Drawing on patent US20250304576A1 (Cancer Research Technology Limited, priority 2022, published 2025), this text covers Ki for 29 molecules.

One test addresses T1, Recombinant IKKα (Homo sapiens, UniProt O15111).
T1 construct: purchased Millipore, Dundee, UK
T1 sequence (O15111 1-745): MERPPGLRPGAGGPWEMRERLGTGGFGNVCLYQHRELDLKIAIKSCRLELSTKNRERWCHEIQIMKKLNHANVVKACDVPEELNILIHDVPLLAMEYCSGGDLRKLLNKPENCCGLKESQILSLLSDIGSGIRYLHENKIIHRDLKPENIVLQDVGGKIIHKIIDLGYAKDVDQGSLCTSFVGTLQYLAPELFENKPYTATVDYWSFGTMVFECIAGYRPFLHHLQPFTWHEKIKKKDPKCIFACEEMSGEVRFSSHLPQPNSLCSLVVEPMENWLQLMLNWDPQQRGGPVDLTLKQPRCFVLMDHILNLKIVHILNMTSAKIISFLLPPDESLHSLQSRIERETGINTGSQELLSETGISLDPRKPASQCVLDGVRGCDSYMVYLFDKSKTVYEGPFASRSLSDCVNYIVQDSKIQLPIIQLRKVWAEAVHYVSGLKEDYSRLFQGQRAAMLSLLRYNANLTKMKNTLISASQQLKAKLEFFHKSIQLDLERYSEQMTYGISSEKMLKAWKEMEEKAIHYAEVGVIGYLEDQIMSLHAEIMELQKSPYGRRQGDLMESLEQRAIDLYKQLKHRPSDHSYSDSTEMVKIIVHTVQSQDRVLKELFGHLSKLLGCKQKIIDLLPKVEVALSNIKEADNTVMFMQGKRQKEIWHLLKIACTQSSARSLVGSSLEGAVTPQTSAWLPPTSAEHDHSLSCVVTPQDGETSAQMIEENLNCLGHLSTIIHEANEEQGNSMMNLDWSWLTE
Briefly: DELFIA IKKα kinase assay (apparent Ki, Cheng-Prusoff). The class given is biochemical. The conditions noted are these: non-italicised figure: DELFIA assay. An outline of the steps: (§1)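 Recombinant IKKα or IKKβ (37 nM) with 0.375 μM biotinylated IκB-α (Ser32) peptide and 40 μM ATP in 40 mM Tris-HCl pH 7.5, 20 mM MgCl2, 60 min at 30° C. Phospho-substrate captured on streptavidin and detected by anti-phospho-IκB-α plus europium anti-mouse IgG time-resolved fluorescence; apparent Ki via Cheng-Prusoff.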

In another test the target is T2, Recombinant IKKβ (Homo sapiens, UniProt O14920).
T2 construct: purchased Millipore, Dundee, UK
T2 sequence (O14920 1-756): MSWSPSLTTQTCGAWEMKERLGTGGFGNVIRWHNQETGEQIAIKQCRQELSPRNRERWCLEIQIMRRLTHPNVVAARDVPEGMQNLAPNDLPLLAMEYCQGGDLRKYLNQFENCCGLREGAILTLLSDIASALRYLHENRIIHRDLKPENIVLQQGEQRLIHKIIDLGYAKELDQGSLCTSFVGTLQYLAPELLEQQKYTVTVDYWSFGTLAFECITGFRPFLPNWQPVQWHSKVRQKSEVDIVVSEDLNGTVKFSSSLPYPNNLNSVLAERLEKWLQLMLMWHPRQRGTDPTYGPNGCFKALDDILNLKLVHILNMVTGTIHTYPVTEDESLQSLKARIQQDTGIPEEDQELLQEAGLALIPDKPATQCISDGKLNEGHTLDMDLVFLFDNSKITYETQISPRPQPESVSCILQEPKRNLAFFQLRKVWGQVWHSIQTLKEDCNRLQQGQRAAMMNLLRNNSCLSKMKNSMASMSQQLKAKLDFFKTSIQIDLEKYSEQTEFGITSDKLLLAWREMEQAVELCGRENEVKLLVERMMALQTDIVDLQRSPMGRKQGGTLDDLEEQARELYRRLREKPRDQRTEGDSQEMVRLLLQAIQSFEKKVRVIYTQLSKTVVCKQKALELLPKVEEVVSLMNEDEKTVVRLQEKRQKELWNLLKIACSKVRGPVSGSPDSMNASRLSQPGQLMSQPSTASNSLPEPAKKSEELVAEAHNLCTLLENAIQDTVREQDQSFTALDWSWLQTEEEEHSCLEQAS
In words: DELFIA IKKβ kinase assay (apparent Ki, Cheng-Prusoff). The class given is biochemical. Particulars: non-italicised figure: DELFIA assay. The method, boiled down: as §1

For `CS(=O)(=O)c1cccc(-c2cc(-c3ccnc(N)c3)cc3c(N)n[nH]c23)c1` [Example 115], the Ki is 0.079 µM on Recombinant IKKα and 2 µM at Recombinant IKKβ.
For `Nc1cc(-c2cc(-c3cccc(CN4CCOCC4)c3)c3[nH]nc(N)c3c2)ccn1` [Example 116] the same measures were 0.162 µM and 1.01 µM.
The matching figures for `Nc1cc(-c2cc(-c3ccc(O)cc3)c3[nH]nc(N)c3c2)ccn1` [Example 117, 4-(3-Amino-5-(2-aminopyridin-4-yl)-1H-indazol-7-yl)phenol]: 0.017 µM and 0.235 µM.
For `Nc1cc(-c2cc(-c3ccc(CO)cc3)c3[nH]nc(N)c3c2)ccn1` [Example 118], the Ki was 0.029 µM at Recombinant IKKα and 0.406 µM at Recombinant IKKβ.
As for `CN(C)c1ccc(-c2cc(-c3ccnc(N)c3)cc3c(N)n[nH]c23)cc1` [Example 119, 5-(2-Aminopyridin-4-yl)-7-(4-(dimethylamino)phenyl)-1H-indazol-3-amine], the Ki stood at 0.084 µM at Recombinant IKKα and 2.51 µM on Recombinant IKKβ.
Take `NC(=O)c1ccc(-c2cc(-c3ccnc(N)c3)cc3c(N)n[nH]c23)cc1` [Example 120, 4-(3-Amino-5-(2-aminopyridin-4-yl)-1H-indazol-7-yl)benzamide]: the Ki on Recombinant IKKα was 0.056 µM; at Recombinant IKKβ it was 1.59 µM.
`Nc1cc(-c2cc(-c3ccc(S(N)(=O)=O)cc3)c3[nH]nc(N)c3c2)ccn1` [Example 121, 4-(3-Amino-5-(2-aminopyridin-4-yl)-1H-indazol-7-yl)benzenesulfonamide]: the Ki on Recombinant IKKα amounted to 0.027 µM; on Recombinant IKKβ, 1.48 µM.
For `Nc1cc(-c2cc(-c3ccc(CN4CCOCC4)cc3)c3[nH]nc(N)c3c2)ccn1` [Example 122, 5-(2-Aminopyridin-4-yl)-7-(4-(morpholinomethyl)phenyl)-1H-indazol-3-amine] the same measures were 0.052 µM and 1.26 µM.
In the case of `CC(C)(C)c1ccc(-c2cc(-c3ccnc(N)c3)cc3c(N)n[nH]c23)cc1` [Example 123, 5-(2-Aminopyridin-4-yl)-7-(4-(tert-butyl)phenyl)-1H-indazol-3-amine], the Ki on Recombinant IKKα worked out at 0.16 µM; at Recombinant IKKβ, 1.5 µM.
The matching figures for `Nc1cc(-c2cc(-c3ccccc3Cl)c3[nH]nc(N)c3c2)ccn1` [Example 124, 5-(2-Aminopyridin-4-yl)-7-(2-chlorophenyl)-1H-indazol-3-amine]: 0.224 µM and 1.76 µM.
For `Nc1cc(-c2cc(-c3ccccc3CO)c3[nH]nc(N)c3c2)ccn1` [Example 125] the same measures were 0.183 µM and 0.796 µM.
For `Cc1cc(S(N)(=O)=O)ccc1-c1cc(-c2ccnc(N)c2)cc2c(N)n[nH]c12` [Example 126, 4-(3-Amino-5-(2-aminopyridin-4-yl)-1H-indazol-7-yl)-3-methylbenzenesulfonamide] the same measures were 0.571 µM and 5.03 µM.
For the molecule `Nc1cc(-c2cc(-c3cccnc3)c3[nH]nc(N)c3c2)ccn1` [Example 127], the Ki at Recombinant IKKα stood at 0.114 µM; at Recombinant IKKβ, 1.68 µM.
For `Nc1cc(-c2cc(-c3ccncc3)c3[nH]nc(N)c3c2)ccn1` [Example 128, 5-(2-Aminopyridin-4-yl)-7-(pyridin-4-yl)-1H-indazol-3-amine] the same measures were 0.035 µM and 1.3 µM.
For the molecule `Nc1cc(-c2cc(-c3ccsc3)c3[nH]nc(N)c3c2)ccn1` [Example 130, 5-(2-Aminopyridin-4-yl)-7-(thiophen-3-yl)-1H-indazol-3-amine], the results for the Ki at Recombinant IKKα and on Recombinant IKKβ were 0.043 µM and 0.612 µM, respectively.
The matching figures for `Nc1cc(-c2cc(-c3cccs3)c3[nH]nc(N)c3c2)ccn1` [Example 131, 5-(2-Aminopyridin-4-yl)-7-(thiophen-2-yl)-1H-indazol-3-amine]: 0.021 µM and 0.224 µM.
For `Nc1cc(-c2cc(-c3cncs3)c3[nH]nc(N)c3c2)ccn1` [Example 132, 5-(2-Aminopyridin-4-yl)-7-(thiazol-5yl)-1H-indazol-3-amine] the same measures were 0.026 µM and 0.316 µM.
The matching figures for `Nc1cc(-c2cc(-c3ccn[nH]3)c3[nH]nc(N)c3c2)ccn1` [Example 133, 5-(2-Aminopyridin-4-yl)-7-(1H-pyrazol-5-yl)-1H-indazol-3-amine]: 0.046 µM and 0.412 µM.
For `CC(C)C#Cc1cc(-c2ccnc(N)c2)cc2c(N)n[nH]c12` [Example 134, 5-(2-Aminopyridin-4-yl)-7-(3-methylbut-1-yn-1-yl)-1H-indazol-3-amine], the results for the Ki at Recombinant IKKα and at Recombinant IKKβ were 0.003 µM and 0.3 µM, respectively.
As for `Nc1cc(-c2cc(C#Cc3ccccc3)c3[nH]nc(N)c3c2)ccn1` [Example 138, 5-(2-Aminopyridin-4-yl)-7-(phenylethynyl)-1H-indazol-3-amine], the Ki at Recombinant IKKα was 0.081 µM; at Recombinant IKKβ, 5.03 µM.
For `Nc1cc(-c2cc(C#CCCO)c3[nH]nc(N)c3c2)ccn1` [Example 139, 4-(3-Amino-5-(2-aminopyridin-4-yl)-1H-indazol-7-yl)but-3-yn-1-ol] the same measures were 0.186 µM and 4.61 µM.
On to `CC1(C#Cc2cc(-c3ccnc(N)c3)cc3c(N)n[nH]c23)COC1` [Example 141, 5-(2-Aminopyridin-4-yl)-7-((3-methyloxetan-3-yl)ethynyl)-1H-indazol-3-amine], for which the Ki at Recombinant IKKα worked out at 0.014 µM; at Recombinant IKKβ, 0.38 µM.
For `Nc1cc(-c2cc(C#CC3CCOCC3)c3[nH]nc(N)c3c2)ccn1` [Example 142, 5-(2-Aminopyridin-4-yl)-7-((tetrahydro-2H-pyran-4-yl)ethynyl)-1H-indazol-3-amine] the same measures were 0.02 µM and 0.7 µM.
For `CC(C)(C)CCc1cc(-c2ccnc(N)c2)cc2c(N)n[nH]c12` [Example 144, 5-(2-Aminopyridin-4-yl)-7-(3,3-dimethylbutyl)-1H-indazol-3-amine] the same measures were 0.015 µM and 0.318 µM.
For `CC(C)(C)C#Cc1cc(-c2cc(N)ncc2F)cc2c(N)n[nH]c12` [Example 148, 5-(2-Amino-5-fluoropyridin-4-yl)-7-(3,3-dimethylbut-1-yn-1-yl)-1H-indazol-3-amine] the same measures were 0.023 µM and 2.33 µM.
As to `CC(C)(C)C#Cc1cc(-c2ccnc(N)c2F)cc2c(N)n[nH]c12` [Example 149, 5-(2-Amino-3-fluoropyridin-4-yl)-7-(3,3-dimethylbut-1-yn-1-yl)-1H-indazol-3-amine], the Ki at Recombinant IKKα came out at 0.008 µM; on Recombinant IKKβ it was 0.22 µM.
Take `CC(C)(C)C#Cc1cc(-c2ccnc(NC3CC3)c2)cc2c(N)n[nH]c12` [Example 153, 5-(2-(Cyclopropylamino)pyridine-4-yl)-7-(3,3-dimethylbut-1-yn-1-yl)-1H-indazol-3-amine]: the Ki at Recombinant IKKα turned out to be 0.004 µM; at Recombinant IKKβ, 0.1 µM.
For `CC(C)(C)C#Cc1cc(-c2ccnc(NC3CCC3)c2)cc2c(N)n[nH]c12` [Example 154, 5-(2-(Cyclobutylamino)pyridin-4-yl)-7-(3,3-dimethylbut-1-yn-1-yl)-1H-indazol-3-amine] the same measures were 0.12 µM and 1.69 µM.
For `CC(C)(C)C#Cc1cc(-c2ccnc(NC3COC3)c2)cc2c(N)n[nH]c12` [Example 155, 7-(3,3-Dimethylbut-1-yn-1-yl)-5-(2-(oxetan-3-ylamino)pyridin-4-yl)-1H-indazol-3-amine] the same measures were 0.015 µM and 0.784 µM.
